# Reference: article PMC4999309, “Structures of TorsinA and its disease-mutant complexed with an activator reveal the molecular basis for primary dystonia” (eLife, 2016)
# Biological target: T1, TorsinAEQ-LULL1 (TorsinA-ATP-LULL1) (Homo sapiens, UniProt O14656+Q8NFQ8, O14656:E171Q)
# T1 construct: gene TOR1A; TorsinA 51-332 (E171Q ATP trap), N-terminal 10xHis-7xArg tag cut by 3C; untagged luminal domain LULL1 233-470; co-expressed in E. coli with alpaca nanobody VHH-BS2 (crystallisation chaperone); heterodimer plus nanobody
# Assay: X-ray crystal structure, […] Å
# Format: binding
# Conditions: 2 mM ATP, pH 6.5; crystallised with nanobody VHH-BS2; ATP in Walker A/B nucleotide site with LULL1 Arg449 finger
compound,measurement,value
Nc1ncnc2c1ncn2[C@@H]1O[C@H](COP(=O)(O)OP(=O)(O)OP(=O)(O)O)[C@@H](O)[C@H]1O [ATP],"X-ray crystal structure, 1.40 Å",An ATP molecule is bound in the manner characteristic of P-loop NTPases
